Experimental data taken from the supplement of paper PMC8566230.
± gives the standard deviation of the averaged measurements.

Experiments:
Assay in all cases: cell viability with growth factor relative to same drug with BSA mock; higher = growth factor protects cells from drug (more viable cells)
Settings in all cases: treatment time: 6 days
SK-N-BE = tested on: SK-N-BE
Procedure: (§1)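 Six neuroblastoma cell lines were treated with a kinase inhibitor or vincristine at a fixed dose (70–90% lethal) plus a growth factor (100 ng/ml) or 0.1% BSA mock for 72 h. Drugs and growth factors were then renewed for another 72 h (6 days total). Viability was read by XTT in triplicate and normalised to the same drug plus BSA (=100%).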

SK-N-SH = tested on: SK-N-SH
Procedure: as §1

SK-N-AS = tested on: SK-N-AS
Procedure: as §1

LAN-1 = tested on: LAN-1
Procedure: as §1

Kelly = tested on: Kelly
Procedure: as §1

SH-SY5Y = tested on: SH-SY5Y
Procedure: as §1

C[C@@H](Oc1cc(-c2cnn(C3CCNCC3)c2)cnc1N)c1c(Cl)ccc(F)c1Cl [crizotinib]
cell viability with growth factor [%]
Settings | added growth factor (100 ng/ml): BDNF | added growth factor (100 ng/ml): EPO | added growth factor (100 ng/ml): HGF | added growth factor (100 ng/ml): IGF-1 | added growth factor (100 ng/ml): NGF | added growth factor (100 ng/ml): SCF
Kelly, drug concentration: 1 uM | 352 ± 40 | 365 ± 77 | 112 ± 35 | 176 ± 5.4 | 300 ± 15 | 107 ± 25
LAN-1, drug concentration: 2.5 uM | 232 ± 53 | 241 ± 35 | 227 ± 46 | 186 ± 23 | 359 ± 36 | 142 ± 20
SH-SY5Y, drug concentration: 2.5 uM | 118 ± 23 | 137 ± 13 | 174 ± 30 | 101 ± 24 | 184 ± 51 | 120 ± 11
SK-N-AS, drug concentration: 5 uM | 103 ± 4.9 | 89.6 ± 9.9 | 106 ± 51 | 130 ± 2.1 | 73.9 ± 16 | 106 ± 19
SK-N-BE, drug concentration: 5 uM | 422 ± 55 | 123 ± 85 | 88.9 ± 4.9 | 291 ± 44 | 173 ± 82 | 121 ± 22
SK-N-SH, drug concentration: 1 uM | 122 ± 3.9 | 111 ± 5.7 | 82.7 ± 14 | 90.8 ± 22 | 210 ± 22 | 95.3 ± 19

Cc1nc(Nc2ncc(C(=O)Nc3c(C)cccc3Cl)s2)cc(N2CCN(CCO)CC2)n1 [dasatinib]
cell viability with growth factor [%]
Settings | added growth factor (100 ng/ml): BDNF | added growth factor (100 ng/ml): EPO | added growth factor (100 ng/ml): HGF | added growth factor (100 ng/ml): IGF-1 | added growth factor (100 ng/ml): NGF | added growth factor (100 ng/ml): SCF
Kelly, drug concentration: 500 nM | 86.8 ± 2.7 | 238 ± 40 | 198 ± 9.8 | 292 ± 36 | 164 ± 34 | 95.8 ± 9.8
LAN-1, drug concentration: 5 nM | 93.1 ± 4.4 | 228 ± 30 | 129 ± 14 | 138 ± 19 | 273 ± 23 | 97.6 ± 14
SH-SY5Y, drug concentration: 25 nM | 131 ± 13 | 320 ± 21 | 97 ± 28 | 135 ± 13 | 217 ± 38 | 169 ± 6.2
SK-N-AS, drug concentration: 50 nM | 117 ± 16 | 108 ± 8.2 | 134 ± 14 | 235 ± 27 | 104 ± 7.1 | 82.7 ± 13
SK-N-BE, drug concentration: 500 nM | 90.9 ± 20 | 130 ± 5.7 | 111 ± 27 | 185 ± 19 | 83.6 ± 3.1 | 146 ± 12
SK-N-SH, drug concentration: 500 nM | 99.7 ± 1 | 126 ± 5.9 | 151 ± 4.3 | 205 ± 33 | 116 ± 15 | 113 ± 22

CNC(=O)c1ccccc1Sc1ccc2c(/C=C/c3ccccn3)n[nH]c2c1 [axitinib]
cell viability with growth factor [%]
Settings | added growth factor (100 ng/ml): BDNF | added growth factor (100 ng/ml): EPO | added growth factor (100 ng/ml): HGF | added growth factor (100 ng/ml): IGF-1 | added growth factor (100 ng/ml): NGF | added growth factor (100 ng/ml): SCF
Kelly, drug concentration: 10 uM | 143 ± 2 | 177 ± 19 | 94.1 ± 20 | 57.3 ± 21 | 148 ± 2.5 | 106 ± 12
LAN-1, drug concentration: 5 uM | 112 ± 12 | 173 ± 13 | 93 ± 28 | 98.5 ± 17 | 159 ± 30 | 117 ± 8.8
SH-SY5Y, drug concentration: 2.5 uM | 104 ± 15 | 138 ± 23 | 95.7 ± 17 | 80.7 ± 16 | 137 ± 12 | 107 ± 2.2
SK-N-AS, drug concentration: 5 uM | 95.7 ± 6.5 | 101 ± 7.1 | 85.5 ± 27 | 48.7 ± 2.5 | 96.1 ± 8 | 99 ± 6.2
SK-N-BE, drug concentration: 5 uM | 103 ± 34 | 142 ± 8.8 | 100 ± 21 | 255 ± 41 | 122 ± 30 | 149 ± 32
SK-N-SH, drug concentration: 10 uM | 109.9 ± 0.6 | 177 ± 27 | 96.8 ± 21 | 60 ± 5.2 | 118 ± 6.3 | 83.5 ± 19
